What was measured:
Experiment in all cases: relative viability (nuclei count vs DMSO), 5 days (fraction); higher = more cells survive
HCC-15 = test system: HCC-15
How it was run: (§1)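 Relative viability divides the nuclei count in treated wells by that in vehicle wells. Lung cancer cell lines were seeded in 1536-well plates, dosed by pin tool the next day, and fixed and stained after 5 days in one step with final 0.05% Triton X-100, 1% formaldehyde and 1 ug/ml Hoechst. Dosing was a single drug or a fixed anchor-drug dose plus five library-drug doses (not always all listed) in √10 steps, and values are medians of duplicate plates imaged at 4×.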

NCI-H2126 = test system: NCI-H2126
How it was run: as §1

SW 1573 = test system: SW 1573
How it was run: as §1

PC-14 = test system: PC-14
How it was run: as §1

UMC-11 = test system: UMC-11
How it was run: as §1

NCI-H358 = test system: NCI-H358
How it was run: as §1

ABC-1 = test system: ABC-1
How it was run: as §1

NCI-H650 = test system: NCI-H650
How it was run: as §1

NCI-H838 = test system: NCI-H838
How it was run: as §1

LU99A = test system: LU99A
How it was run: as §1

NCI-H1651 = test system: NCI-H1651
How it was run: as §1

NCI-H2347 = test system: NCI-H2347
How it was run: as §1

NCI-H1915 = test system: NCI-H1915
How it was run: as §1

NCI-H2085 = test system: NCI-H2085
How it was run: as §1

HARA = test system: HARA
How it was run: as §1

HCC-78 = test system: HCC-78
How it was run: as §1

NCI-H1993 = test system: NCI-H1993
How it was run: as §1

LC-2-ad = test system: LC-2-ad
How it was run: as §1

NCI-H460 = test system: NCI-H460
How it was run: as §1

COR-L23 = test system: COR-L23
How it was run: as §1

NCI-H2342 = test system: NCI-H2342
How it was run: as §1

NCI-H522 = test system: NCI-H522
How it was run: as §1

NCI-H2009 = test system: NCI-H2009
How it was run: as §1

EPLC-272H = test system: EPLC-272H
How it was run: as §1

In the case of `CC(C)Oc1cc(Nc2nc(N[C@@H](C)c3ccc(F)cn3)ncc2Cl)n[nH]1` [AZ23] + O=C(CCCCCCC(=O)Nc1ccccc1)NO [Vorinostat] (partner 1 µM), the relative viability (HCC-15; first compound 0.01 µM) is reported as 0.921, the relative viability (HCC-15; first compound 0.03162 µM) is reported as 0.963 and the relative viability (HCC-15; first compound 0.3162 µM) is reported as 0.788. The relative viability (NCI-H2126; first compound 0.01 µM) was 0.776, the relative viability (NCI-H2126; first compound 0.03162 µM) was 0.873 and the relative viability (NCI-H2126; first compound 0.3162 µM) was 0.616. For the same compound, the relative viability (SW 1573; first compound 0.01 µM) was 0.963, the relative viability (SW 1573; first compound 0.03162 µM) was 0.881 and the relative viability (SW 1573; first compound 0.3162 µM) was 0.757. It also gave a relative viability (PC-14; first compound 0.01 µM) of 0.284, a relative viability (PC-14; first compound 0.03162 µM) of 0.874 and a relative viability (PC-14; first compound 0.3162 µM) of 0.905. For the same compound, the relative viability (UMC-11; first compound 0.01 µM) was 0.281, the relative viability (UMC-11; first compound 0.03162 µM) was 0.384 and the relative viability (UMC-11; first compound 0.3162 µM) was 0.357. It also gave a relative viability (NCI-H358; first compound 0.01 µM) of 0.631, a relative viability (NCI-H358; first compound 0.03162 µM) of 0.718 and a relative viability (NCI-H358; first compound 0.3162 µM) of 0.758. The relative viability (ABC-1; first compound 0.01 µM) was 0.957, the relative viability (ABC-1; first compound 0.03162 µM) was 1.15 and the relative viability (ABC-1; first compound 0.3162 µM) was 1.19. The relative viability (NCI-H650; first compound 0.01 µM) was 0.411, the relative viability (NCI-H650; first compound 0.03162 µM) was 0.583 and the relative viability (NCI-H650; first compound 0.3162 µM) was 0.452. The relative viability (NCI-H838; first compound 0.01 µM) was 0.768, the relative viability (NCI-H838; first compound 0.03162 µM) was 0.687 and the relative viability (NCI-H838; first compound 0.3162 µM) was 0.626. It also gave a relative viability (LU99A; first compound 0.01 µM) of 0.516, a relative viability (LU99A; first compound 0.03162 µM) of 0.6 and a relative viability (LU99A; first compound 0.3162 µM) of 0.493. It also gave a relative viability (NCI-H1651; first compound 0.01 µM) of 0.524, a relative viability (NCI-H1651; first compound 0.03162 µM) of 0.545 and a relative viability (NCI-H1651; first compound 0.3162 µM) of 0.584. For the same compound, the relative viability (NCI-H2347; first compound 0.01 µM) was 0.446, the relative viability (NCI-H2347; first compound 0.03162 µM) was 0.631 and the relative viability (NCI-H2347; first compound 0.3162 µM) was 0.587. It also gave a relative viability (NCI-H1915; first compound 0.01 µM) of 0.575, a relative viability (NCI-H1915; first compound 0.03162 µM) of 0.526 and a relative viability (NCI-H1915; first compound 0.3162 µM) of 0.58. For the same compound, the relative viability (NCI-H2085; first compound 0.01 µM) was 0.662, the relative viability (NCI-H2085; first compound 0.03162 µM) was 0.88 and the relative viability (NCI-H2085; first compound 0.3162 µM) was 0.755. It also gave a relative viability (HARA; first compound 0.01 µM) of 0.58, a relative viability (HARA; first compound 0.03162 µM) of 0.471 and a relative viability (HARA; first compound 0.3162 µM) of 0.383. It also gave a relative viability (HCC-78; first compound 0.01 µM) of 0.432, a relative viability (HCC-78; first compound 0.03162 µM) of 0.401 and a relative viability (HCC-78; first compound 0.3162 µM) of 0.341. For the same compound, the relative viability (NCI-H1993; first compound 0.01 µM) was 0.634, the relative viability (NCI-H1993; first compound 0.03162 µM) was 0.654 and the relative viability (NCI-H1993; first compound 0.3162 µM) was 0.814. It also gave a relative viability (LC-2-ad; first compound 0.01 µM) of 0.86, a relative viability (LC-2-ad; first compound 0.03162 µM) of 0.789 and a relative viability (LC-2-ad; first compound 0.3162 µM) of 0.716. The relative viability (NCI-H460; first compound 0.01 µM) was 0.252, the relative viability (NCI-H460; first compound 0.03162 µM) was 1.06 and the relative viability (NCI-H460; first compound 0.3162 µM) was 0.774. The relative viability (COR-L23; first compound 0.01 µM) was 0.164, the relative viability (COR-L23; first compound 0.03162 µM) was 0.498 and the relative viability (COR-L23; first compound 0.3162 µM) was 0.424. It also gave a relative viability (NCI-H2342; first compound 0.01 µM) of 0.619, a relative viability (NCI-H2342; first compound 0.03162 µM) of 0.74 and a relative viability (NCI-H2342; first compound 0.3162 µM) of 0.686. For the same compound, the relative viability (NCI-H522; first compound 0.01 µM) was 0.939, the relative viability (NCI-H522; first compound 0.03162 µM) was 0.954 and the relative viability (NCI-H522; first compound 0.3162 µM) was 0.934. It also gave a relative viability (NCI-H2009; first compound 0.01 µM) of 0.704, a relative viability (NCI-H2009; first compound 0.03162 µM) of 0.787 and a relative viability (NCI-H2009; first compound 0.3162 µM) of 0.793. It also gave a relative viability (EPLC-272H; first compound 0.03162 µM) of 0.543 and a relative viability (EPLC-272H; first compound 0.3162 µM) of 0.423.

— the supplement of paper PMC10307832
